The subject of assay [1] is LLC-PK1. Put plainly: Renoprotective activity in pig LLC-PK1 cells assessed as reduction in cisplatin-induced toxicity by measuring cell viability at 5 to 50 uM after 24 hrs by MTT assay relative to control. The assay is classed as functional. In general terms: Formazan colour is commonly taken as a measure of viable cells.
Assay [2] has as its system LLC-PK1. In words: Inhibition of cisplatin-induced caspase-3 activity in pig LLC-PK1 cells assessed as decrease in cleaved caspase 3 level at 50 uM after 24 hrs by Western blotting method. The note with it: Sus scrofa. The assay is classed as functional, cell-based. On the technique in general: A western blot detects proteins with antibodies after separation by electrophoresis.

The test system of assay [3] is LLC-PK1. In words: Inhibition of cisplatin-induced JNK phosphorylation in pig LLC-PK1 cells at 50 uM after 24 hrs by Western blotting method. The assay is classed as cell-based. The note with it: Sus scrofa.
Assay [4] relates to LLC-PK1. In words: Inhibition of cisplatin-induced p38 phosphorylation in pig LLC-PK1 cells at 50 uM after 24 hrs by Western blotting method. The assay is classed as cell-based. Conditions: Sus scrofa.
The subject of assay [5] is LLC-PK1. In words: Renoprotective activity in pig LLC-PK1 cells assessed as reduction in cisplatin-induced toxicity by measuring cell viability after 24 hrs by MTT assay. Conditions: Sus scrofa. The assay is classed as functional, cell-based.
For assay [6], the system named is LLC-PK1. Put plainly: Inhibition of cisplatin-induced apoptosis in pig LLC-PK1 cells at 50 uM after 24 hrs by annexin V-Alexa Fluor 488/propidium iodide staining-based flow cytometry. The assay is classed as functional, cell-based. The note with it: Sus scrofa. On the technique in general: Flow cytometry measures light scatter and fluorescence of single cells or particles in a stream.

Calls of active or inactive are those of the source. The calls are words filed in the database; no cut-off is given here.

Turning to `C[C@@H]1O[C@@H](O[C@H]2[C@H](O)[C@@H](C(=O)O)O[C@@H](O[C@@H]3CC[C@]4(C)[C@H](CC[C@@]5(C)[C@H]4CC=C4[C@H]6CC(C)(C)CC[C@@]6(C(=O)O[C@@H]6O[C@H](C)[C@H](O)[C@H](O)[C@H]6O[C@H]6O[C@H](C)[C@@H](O[C@H]7OC[C@H](O)[C@@H](O)[C@@H]7O)[C@H](O[C@H]7O[C@@H](CO)[C@H](O)[C@@H](O[C@@H]8OC[C@@H](O)[C@H](O)[C@H]8O)[C@@H]7O)[C@@H]6O)CC[C@@]45C)[C@@]3(C)C=O)[C@@H]2O[C@@H]2O[C@H](CO)[C@H](O)[C@H](O)[C@H]2O)[C@H](O)[C@H](O)[C@H]1O`, in assay [1] (Sus scrofa), the outcome was Active.

On to `C[C@H]1O[C@H](O[C@H]2[C@H](O)[C@@H](C(=O)O)O[C@@H](O[C@@H]3CC[C@]4(C)[C@H](CC[C@@]5(C)[C@H]4CC=C4[C@H]6CC(C)(C)CC[C@@]6(C(=O)O)[C@@H](O)C[C@@]45C)[C@@]3(C)C=O)[C@@H]2O[C@H]2O[C@@H](CO)[C@@H](O)[C@@H](O)[C@@H]2O)[C@@H](O)[C@@H](O)[C@@H]1O`, for which the inhibition entry in assay [2], in assay [3], in assay [4] and in assay [6] was “Active” throughout. The Activity entry in assay [1] is “<=80%”; in assay [5], “Dose-dependent effect”.

As for `C[C@H]1O[C@H](O[C@H]2[C@H](O)[C@@H](C(=O)O)O[C@@H](O[C@@H]3CC[C@]4(C)[C@H](CC[C@@]5(C)[C@H]4CC=C4[C@H]6CC(C)(C)CC[C@@]6(C(=O)O)CC[C@@]45C)[C@@]3(C)C=O)[C@@H]2O[C@H]2O[C@@H](CO)[C@@H](O)[C@@H](O)[C@@H]2O)[C@@H](O)[C@@H](O)[C@@H]1O`, the inhibition result in assay [2], in assay [3], in assay [4] and in assay [6] was “Active” each time. The values for the Activity result in assay [1] and in assay [5] were “<=80%” and “Dose-dependent effect”, respectively.

(Values after ChEMBL document CHEMBL3769378, “Protective effect and mechanism of action of saponins isolated from the seeds of gac (Momordica cochinchinensis Spreng.) against cisplatin-induced damage in LLC-PK1 kidney cells” (2016).)
